Measurements taken from patent US20230295119A1, “SUBSTITUTED PYRIDINES FOR THE TREATMENT OF INFLAMMATORY DISEASES” (GOSSAMER BIO SERVICES, INC., priority 2020, published 2023).

Experiments:
TYK2 JH2 domain = TYK2 JH2 domain (Homo sapiens (Human), UniProt P29597); experiment: TYK2 JH2 NanoBRET assay; type: binding; details: Table 20, read-out: TYK2 IC50
How it was run: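 Tracer displacement measured by BRET ratio (acceptor over donor) in live HEK293T cells transfected with a NanoLuc-tagged TYK2 JH2 construct; cells co-exposed to test compound and 0.5 µM final K10 tracer for 2 h before substrate/extracellular inhibitor addition.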

human JAK1 = human JAK1 (Homo sapiens (Human), UniProt P23458); experiment: JAK1 TR-FRET kinase assay; type: biochemical; details: TR-FRET, JAK1 2.5 nM
Chain of human JAK1 (P23458 whole entry): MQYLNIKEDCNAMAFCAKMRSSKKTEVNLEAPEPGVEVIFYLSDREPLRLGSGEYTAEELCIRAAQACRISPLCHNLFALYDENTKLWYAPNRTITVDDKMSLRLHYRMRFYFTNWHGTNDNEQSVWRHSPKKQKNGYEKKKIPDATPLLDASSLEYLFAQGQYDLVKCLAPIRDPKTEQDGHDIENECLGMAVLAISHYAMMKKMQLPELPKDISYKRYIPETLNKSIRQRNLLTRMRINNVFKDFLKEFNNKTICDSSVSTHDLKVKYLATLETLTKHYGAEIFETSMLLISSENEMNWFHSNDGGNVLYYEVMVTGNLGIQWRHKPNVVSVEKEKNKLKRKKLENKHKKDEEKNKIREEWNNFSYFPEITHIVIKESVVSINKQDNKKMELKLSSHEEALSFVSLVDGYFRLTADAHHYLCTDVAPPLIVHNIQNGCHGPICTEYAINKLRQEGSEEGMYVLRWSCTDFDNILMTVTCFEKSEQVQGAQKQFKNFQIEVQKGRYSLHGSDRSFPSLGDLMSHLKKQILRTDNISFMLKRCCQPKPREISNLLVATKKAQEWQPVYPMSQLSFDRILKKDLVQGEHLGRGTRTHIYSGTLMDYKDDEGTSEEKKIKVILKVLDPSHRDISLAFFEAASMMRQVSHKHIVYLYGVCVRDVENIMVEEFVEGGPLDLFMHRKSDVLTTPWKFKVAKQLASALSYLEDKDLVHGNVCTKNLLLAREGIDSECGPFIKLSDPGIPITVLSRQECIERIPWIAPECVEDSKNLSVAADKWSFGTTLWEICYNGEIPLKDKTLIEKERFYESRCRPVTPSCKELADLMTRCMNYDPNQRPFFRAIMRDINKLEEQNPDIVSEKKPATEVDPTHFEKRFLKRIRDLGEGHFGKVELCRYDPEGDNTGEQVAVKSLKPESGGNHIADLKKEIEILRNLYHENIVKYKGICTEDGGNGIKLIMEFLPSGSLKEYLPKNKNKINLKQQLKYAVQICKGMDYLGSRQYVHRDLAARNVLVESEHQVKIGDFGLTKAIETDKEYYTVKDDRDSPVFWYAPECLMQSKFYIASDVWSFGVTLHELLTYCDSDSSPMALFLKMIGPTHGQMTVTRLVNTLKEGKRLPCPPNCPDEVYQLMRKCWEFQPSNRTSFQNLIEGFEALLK

human JAK2 = human JAK2 (Homo sapiens (Human), UniProt O60674); experiment: JAK2 TR-FRET kinase assay; type: biochemical; details: JAK2 0.025 nM
Chain of human JAK2 (O60674 whole entry): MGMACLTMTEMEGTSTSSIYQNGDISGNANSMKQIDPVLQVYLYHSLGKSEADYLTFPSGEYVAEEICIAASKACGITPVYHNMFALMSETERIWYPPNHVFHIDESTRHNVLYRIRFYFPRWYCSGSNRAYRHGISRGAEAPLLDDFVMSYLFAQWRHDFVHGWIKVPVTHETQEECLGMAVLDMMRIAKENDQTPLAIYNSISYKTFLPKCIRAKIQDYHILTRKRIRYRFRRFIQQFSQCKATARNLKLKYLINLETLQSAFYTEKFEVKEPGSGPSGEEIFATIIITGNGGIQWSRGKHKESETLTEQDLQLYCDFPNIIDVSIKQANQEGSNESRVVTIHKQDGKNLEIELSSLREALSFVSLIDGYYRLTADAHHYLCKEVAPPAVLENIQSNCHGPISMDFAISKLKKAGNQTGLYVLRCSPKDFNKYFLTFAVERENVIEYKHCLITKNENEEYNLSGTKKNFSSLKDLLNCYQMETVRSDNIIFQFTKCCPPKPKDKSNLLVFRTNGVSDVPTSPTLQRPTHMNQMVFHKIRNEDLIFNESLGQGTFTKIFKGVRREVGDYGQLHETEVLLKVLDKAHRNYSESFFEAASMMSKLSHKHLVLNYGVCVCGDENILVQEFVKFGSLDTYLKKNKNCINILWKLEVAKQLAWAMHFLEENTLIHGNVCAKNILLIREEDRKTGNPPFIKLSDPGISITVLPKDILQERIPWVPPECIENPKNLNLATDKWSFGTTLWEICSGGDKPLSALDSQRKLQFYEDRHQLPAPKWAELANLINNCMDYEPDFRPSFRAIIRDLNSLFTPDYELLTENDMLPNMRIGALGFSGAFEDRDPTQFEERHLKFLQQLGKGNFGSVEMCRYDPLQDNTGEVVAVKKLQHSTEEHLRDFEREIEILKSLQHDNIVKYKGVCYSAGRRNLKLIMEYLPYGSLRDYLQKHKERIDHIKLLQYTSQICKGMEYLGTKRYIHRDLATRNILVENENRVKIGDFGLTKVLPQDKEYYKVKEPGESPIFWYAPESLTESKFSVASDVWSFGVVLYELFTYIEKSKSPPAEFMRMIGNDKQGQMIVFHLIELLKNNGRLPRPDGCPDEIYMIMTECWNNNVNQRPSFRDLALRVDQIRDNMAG

human JAK3 = human JAK3 (Homo sapiens (Human), UniProt P52333); experiment: JAK3 TR-FRET kinase assay; type: biochemical; details: JAK3 0.0125 nM
Chain of human JAK3 (P52333 whole entry): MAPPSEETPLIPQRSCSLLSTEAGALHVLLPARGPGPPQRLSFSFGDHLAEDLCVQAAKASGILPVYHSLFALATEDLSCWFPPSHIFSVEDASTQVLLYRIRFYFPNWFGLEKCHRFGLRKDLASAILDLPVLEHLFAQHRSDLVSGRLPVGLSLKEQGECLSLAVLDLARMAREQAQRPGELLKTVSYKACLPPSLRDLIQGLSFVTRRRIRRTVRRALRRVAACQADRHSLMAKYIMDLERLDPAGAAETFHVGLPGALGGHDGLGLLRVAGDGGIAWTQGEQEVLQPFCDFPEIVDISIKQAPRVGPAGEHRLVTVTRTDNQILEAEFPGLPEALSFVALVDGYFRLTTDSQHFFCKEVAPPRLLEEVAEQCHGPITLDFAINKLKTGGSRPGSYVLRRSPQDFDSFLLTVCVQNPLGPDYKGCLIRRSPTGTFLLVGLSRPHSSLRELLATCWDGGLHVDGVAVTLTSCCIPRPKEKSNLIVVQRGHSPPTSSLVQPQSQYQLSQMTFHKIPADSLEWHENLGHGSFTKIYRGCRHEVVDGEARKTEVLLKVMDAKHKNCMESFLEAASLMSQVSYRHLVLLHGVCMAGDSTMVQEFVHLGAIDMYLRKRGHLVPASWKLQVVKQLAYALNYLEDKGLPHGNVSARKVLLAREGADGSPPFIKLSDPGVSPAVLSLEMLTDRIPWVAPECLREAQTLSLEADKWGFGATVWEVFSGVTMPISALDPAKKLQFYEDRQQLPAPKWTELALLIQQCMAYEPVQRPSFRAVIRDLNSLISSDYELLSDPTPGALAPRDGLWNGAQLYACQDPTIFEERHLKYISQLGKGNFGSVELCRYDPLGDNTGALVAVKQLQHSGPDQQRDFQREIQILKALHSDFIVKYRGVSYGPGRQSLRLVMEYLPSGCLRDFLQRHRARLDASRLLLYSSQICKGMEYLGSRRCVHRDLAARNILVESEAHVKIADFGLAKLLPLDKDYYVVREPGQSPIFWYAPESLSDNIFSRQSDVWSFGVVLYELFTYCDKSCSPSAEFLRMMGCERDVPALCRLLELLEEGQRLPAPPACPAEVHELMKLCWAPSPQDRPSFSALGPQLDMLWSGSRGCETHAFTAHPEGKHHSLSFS

Chain of TYK2 JH2 domain (P29597 589-875): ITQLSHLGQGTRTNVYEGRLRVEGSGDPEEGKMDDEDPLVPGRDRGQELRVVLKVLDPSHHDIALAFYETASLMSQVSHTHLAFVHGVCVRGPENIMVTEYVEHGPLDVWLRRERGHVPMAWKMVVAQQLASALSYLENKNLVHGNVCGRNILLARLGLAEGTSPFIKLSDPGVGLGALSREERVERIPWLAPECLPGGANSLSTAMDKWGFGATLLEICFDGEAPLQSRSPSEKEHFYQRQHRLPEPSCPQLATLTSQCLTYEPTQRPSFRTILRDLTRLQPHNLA

IC50 (TYK2 JH2 domain) [nM]	IC50 (human JAK1) [nM]	IC50 (human JAK2) [nM]	IC50 (human JAK3) [nM]	SMILES
5 to 50	≥ 500	≥ 500	≥ 500	CCC(=O)c1cnc(Nc2ccn([C@H]3C[C@@H](C#N)C3)n2)cc1Nc1cccc(-c2ncn(C)n2)c1OC [Compound 21N]
5 to 50	≥ 500	≥ 500	≥ 500	CCC(=O)c1cnc(Nc2cnc(O[C@@H]3CCN(CC(F)F)C3)cn2)cc1Nc1cccc(-c2ncn(C)n2)c1OC [Compound 18KKK]
< 5	≥ 500	≥ 500	≥ 500	CCC(=O)c1cnc(Nc2ccc(O[C@@H]3CCOC3)cn2)cc1Nc1cccc(-c2ncn(C)n2)c1OC [Compound 18BB]
< 5	≥ 500	≥ 500	50 to 500	CCC(=O)c1cnc(Nc2ccc(CN3CC4(COC4)C3)cn2)cc1Nc1cccc(-c2ncn(C)n2)c1OC [Compound 9YY]
< 5	≥ 500	≥ 500	≥ 500	CCC(=O)c1cnc(Nc2ccc(O[C@H]3CCN(C)C3)cn2)cc1Nc1cccc(-c2ncn(C)n2)c1OC [Compound 18W]
5 to 50	≥ 500	≥ 500	≥ 500	CCC(=O)c1cnc(Nc2cccc(C(=O)N(C)C)n2)cc1Nc1cccc(-c2ncn(C)n2)c1OC [Compound 8L]
5 to 50	≥ 500	≥ 500	50 to 500	CCC(=O)c1cnc(Nc2cc(C)n(CCOC)n2)cc1Nc1cccc(-c2ncn(C)n2)c1OC [Compound 21Z]
≥ 500	≥ 500	≥ 500	≥ 500	CCC(=O)c1cnc(NC(=O)[C@@H]2C[C@H]2C(=O)O)cc1Nc1cccc(-c2ncn(C)n2)c1OC [Compound 22C]
< 5	≥ 500	≥ 500	≥ 500	CCC(=O)c1cnc(Nc2ccc(C(C)N(C)C)cn2)cc1Nc1cccc(-c2ncn(C)n2)c1OC (centres unmarked) [Compound 9I]
< 5	≥ 500	≥ 500	≥ 500	CCC(=O)c1cnc(Nc2ccc(CN(C)C(C)C)cn2)cc1Nc1cccc(-c2ncn(C)n2)c1OC [Compound 9T]
< 5	≥ 500	≥ 500	≥ 500	CCC(=O)c1cnc(Nc2ccc(-n3ccncc3=O)cn2)cc1Nc1cccc(-c2ncn(C)n2)c1OC [Compound 15V]
5 to 50	≥ 500	≥ 500	≥ 500	COc1c(Nc2cc(Nc3ccc(OC(CO)CO)cn3)ncc2C(=O)C2CC2)cccc1-c1ncn(C)n1 [Compound 18K]
< 5	≥ 500	50 to 500	50 to 500	CCC(=O)c1cnc(Nc2ccc(OC3COC3)c(C)n2)cc1Nc1cccc(-c2ncn(C)n2)c1OC [Compound 18ZZZ]
50 to 500	≥ 500	≥ 500	≥ 500	CCC(=O)c1cnc(NC(=O)C2CC2)cc1Nc1cc(COC)cc(-c2ncn(C)n2)c1OC [Compound 25E]
5 to 50	≥ 500	≥ 500	≥ 500	CCC(=O)c1cnc(Nc2cnc(C(F)(F)CN3CCCC3)cn2)cc1Nc1cccc(-c2ncn(C)n2)c1OC [Compound 19E]
< 5	≥ 500	≥ 500	≥ 500	CCC(=O)c1cnc(Nc2cnc(OCCCN3CCCC3)cn2)cc1Nc1cccc(-c2ncn(C)n2)c1OC [Compound 18WW]
5 to 50	≥ 500	≥ 500	≥ 500	CCC(=O)c1cnc(NC(=O)CC2CC2)cc1Nc1cccc(-c2ncn(C)n2)c1OC [Compound 23B]
< 5	≥ 500	50 to 500	50 to 500	CCC(=O)c1cnc(Nc2ccc(CN3[C@H](C)COC[C@@H]3C)cn2)cc1Nc1cccc(-c2ncn(C)n2)c1OC [Compound 9TT]
50 to 500	≥ 500	≥ 500	50 to 500	CCC(=O)c1cnc(Nc2ccn(CC3(C)COC3)n2)cc1Nc1cccc(-c2ncn(C)n2)c1OC [Compound 21Q]
≥ 500	≥ 500	≥ 500	≥ 500	CCC(=O)c1cnc(NC(=O)[C@@H]2C[C@@H]2NC(=O)OC(C)(C)C)cc1Nc1cccc(-c2ncn(C)n2)c1OC [Compound 22J]

IC50 (TYK2 JH2 domain) [nM]	IC50 (human JAK1) [nM]	IC50 (human JAK2) [nM]	IC50 (human JAK3) [nM]	SMILES
< 5	≥ 500	≥ 500	≥ 500	CCC(=O)c1cnc(Nc2cc(-c3cnn(C)c3)ccn2)cc1Nc1cccc(-c2ncn(C)n2)c1OC [Compound 15G]
< 5	≥ 500	≥ 500	≥ 500	CCC(=O)c1cnc(Nc2ccc(OCCN3CCCC3)nn2)cc1Nc1cccc(-c2ncn(C)n2)c1OC [Compound 18CC]
< 5	≥ 500	≥ 500	≥ 500	CCC(=O)c1cnc(Nc2ccc(C(C)(C)N(C)C)cn2)cc1Nc1cccc(-c2ncn(C)n2)c1OC [Compound 9N]
< 5	≥ 500	≥ 500	≥ 500	CCC(=O)c1cnc(Nc2cc(C(N)=O)ncn2)cc1Nc1cccc(-c2ncn(C)n2)c1OC [Compound 8M]
5 to 50	≥ 500	≥ 500	≥ 500	CCC(=O)c1cnc(Nc2ccc([C@H](C)N3CC(O)C3)cn2)cc1Nc1cccc(-c2ncn(C)n2)c1OC [Compound 9GG]
< 5	≥ 500	≥ 500	50 to 500	CCC(=O)c1cnc(Nc2ccc(CN3CC(F)C3)cn2)cc1Nc1cccc(-c2ncn(C)n2)c1OC [Compound 9EE]
< 5	≥ 500	≥ 500	≥ 500	CCC(=O)c1cnc(Nc2ccnc(OCCO)n2)cc1Nc1cccc(-c2ncn(C)n2)c1OC [Compound 180]
50 to 500	≥ 500	≥ 500	≥ 500	CCC(=O)c1cnc(Nc2cnc(CCNC)cn2)cc1Nc1cccc(-c2ncn(C)n2)c1OC [Compound 11H]
< 5	≥ 500	≥ 500	≥ 500	CCC(=O)c1cnc(Nc2ccc(CN3CC4(CCOC4)C3)cn2)cc1Nc1cccc(-c2ncn(C)n2)c1OC [Compound 9CCC]
5 to 50	≥ 500	≥ 500	50 to 500	CCC(=O)c1cnc(Nc2ccc([C@H](C)N3C[C@@H](O)[C@H](O)C3)cn2)cc1Nc1cccc(-c2ncn(C)n2)c1OC [Compound 9PP]
5 to 50	≥ 500	≥ 500	≥ 500	CCC(=O)c1cnc(NC(=O)[C@@H]2C[C@H]2CN(C)C)cc1Nc1cccc(-c2ncn(C)n2)c1OC [Compound 22D]
< 5	≥ 500	≥ 500	≥ 500	CCC(=O)c1cnc(Nc2ccc(CN(C)C)cn2)cc1Nc1cccc(-c2ncn(C)n2)c1OC [Compound 9A, 1-(6-((5-((dimethylamino)methyl)pyridin-2-yl)amino)-4-((2-methoxy-3-(1-methyl-1H-1,2,4-triazol-3-yl)phenyl)amino)pyridin-3-yl)propan-1-one]
< 5	≥ 500	≥ 500	≥ 500	CCC(=O)c1cnc(Nc2ccc(S(C)(=O)=O)cn2)cc1Nc1nccc(-c2ncn(C)n2)c1OC [Compound 13I]
5 to 50	≥ 500	≥ 500	50 to 500	CCC(=O)c1cnc(Nc2cc(OCCO)n(C)n2)cc1Nc1cccc(-c2ncn(C)n2)c1OC [Compound 21AA]
5 to 50	≥ 500	≥ 500	≥ 500	CCC(=O)c1cnc(Nc2ccc(CS(C)(=N)=O)cn2)cc1Nc1cccc(-c2ncn(C)n2)c1OC (centres unmarked) [Compound 13F]
< 5	≥ 500	≥ 500	≥ 500	CCC(=O)c1cnc(Nc2cc(C(C)N(C)C)ncn2)cc1Nc1cccc(-c2ncn(C)n2)c1OC (centres unmarked) [Compound 9QQQQ]
5 to 50	≥ 500	≥ 500	≥ 500	CCC(=O)c1cnc(Nc2cnc(OCCn3cnc(C)c3)cn2)cc1Nc1cccc(-c2ncn(C)n2)c1OC [Compound 18HHH]
< 5	≥ 500	≥ 500	≥ 500	CCC(=O)c1cnc(Nc2ccc(OC3COC3)cn2)cc1Nc1cccc(-c2ncn(C)n2)c1OC [Compound 18Z]
< 5	≥ 500	≥ 500	≥ 500	CCC(=O)c1cnc(Nc2cc(C(=O)N(C)C)ncn2)cc1Nc1cccc(-c2ncn(C)n2)c1OC [Compound 8O]
< 5	≥ 500	≥ 500	≥ 500	CCC(=O)c1cnc(Nc2ccc(OCCN3CCCC3)cn2)cc1Nc1cccc(-c2ncn(C)n2)c1OC [Compound 10A, 1-(4-((2-methoxy-3-(1-methyl-1H-1,2,4-triazol-3-yl)phenyl)amino)-6-((5-(2-(pyrrolidin-1-yl)ethoxy)pyridin-2-yl)amino)pyridin-3-yl)propan-1-one]

SMILES	IC50 (TYK2 JH2 domain) [nM]	IC50 (human JAK1) [nM]	IC50 (human JAK2) [nM]	IC50 (human JAK3) [nM]
CCC(=O)c1cnc(Nc2ccc(CCN(C)C)cn2)cc1Nc1cccc(-c2ncn(C)n2)c1OC [Compound 11A, 1-(6-((5-(2-(dimethylamino)ethyl)pyridin-2-yl)amino)-4-((2-methoxy-3-(1-methyl-1H-1,2,4-triazol-3-yl)phenyl)amino)pyridin-3-yl)propan-1-one]	< 5	≥ 500	≥ 500	≥ 500
